Data reported in ChEMBL document CHEMBL4261583, “Discovery of potent calpain inhibitors based on the azolo-imidazolidenone scaffold” (Eur J Med Chem, 2018).
Activity calls are given as the source filed them. No cut-off for these calls is given here.

Experiments:
[1] = target: T1, Calpain-1 catalytic subunit (Homo sapiens) (UniProt P07384); assay: Inhibition of calpain (unknown origin) at 1 uM using Suc-LY-AMC as fluorogenic substrate after 60 mins by spectrofluorometric analysis relative to calpeptin
T1 sequence (whole entry): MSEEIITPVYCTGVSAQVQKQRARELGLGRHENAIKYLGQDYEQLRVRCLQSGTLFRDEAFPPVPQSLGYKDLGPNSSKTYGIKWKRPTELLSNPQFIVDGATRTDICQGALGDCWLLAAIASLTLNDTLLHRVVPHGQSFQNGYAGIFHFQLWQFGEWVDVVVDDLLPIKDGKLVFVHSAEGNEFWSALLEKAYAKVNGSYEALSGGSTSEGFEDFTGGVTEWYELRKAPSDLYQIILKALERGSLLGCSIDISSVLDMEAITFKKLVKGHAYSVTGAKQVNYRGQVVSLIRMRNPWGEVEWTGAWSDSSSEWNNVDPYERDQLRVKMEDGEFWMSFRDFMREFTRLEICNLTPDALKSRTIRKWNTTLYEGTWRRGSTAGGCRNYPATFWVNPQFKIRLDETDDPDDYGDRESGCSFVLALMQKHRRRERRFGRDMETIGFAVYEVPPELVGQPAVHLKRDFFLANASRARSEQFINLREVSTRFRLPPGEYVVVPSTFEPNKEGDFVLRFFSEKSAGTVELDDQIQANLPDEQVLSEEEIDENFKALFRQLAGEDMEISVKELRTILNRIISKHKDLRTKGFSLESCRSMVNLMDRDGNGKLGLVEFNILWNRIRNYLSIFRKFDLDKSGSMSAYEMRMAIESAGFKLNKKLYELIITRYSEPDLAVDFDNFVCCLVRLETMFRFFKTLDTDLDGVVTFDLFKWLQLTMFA

[2] = target: T2, Calpain-1 catalytic subunit (Homo sapiens, UniProt P07384); assay: Inhibition of calpain (unknown origin) using Suc-LY-AMC as fluorogenic substrate after 60 mins by spectrofluorometric analysis
T2 sequence (P07384 whole entry): T1 sequence (whole entry)

[3] = target: T1, Calpain-1 catalytic subunit (Homo sapiens); assay: Uncompetitive inhibition of calpain (unknown origin) at 1 to 10 uM using Suc-LY-AMC as fluorogenic substrate after 60 mins by Lineweaver-Burk plot analysis
HK-2 [4] = assay: Cytoprotective activity against NaN3-induced apoptosis in human HK2 cells at 0.1 to 10 uM pre-incubated with NaN3 for 30 mins followed by 24 hrs recovery with compound propidium iodide staining-based flow cytometric analysis; type: functional, cell-based
HK-2 [5] = assay: Cytotoxicity against human HK2 cells at 0.1 to 10 uM after 24 hrs by MTT assay; type: cell-based; settings: hk-2, 24 h
HK-2 [6] = assay: Cytoprotective activity against NaN3-induced apoptosis in human HK2 cells at 1 uM pre-incubated with 200 mM NaN3 for 30 mins followed by 24 hrs recovery with compound propidium iodide staining-based flow cytometric analysis (reference value: 27.3 +/- 4.9%); type: functional
HK-2 [7] = assay: Induction of apoptosis in human HK2 cells at 1 uM after 24 hrs by propidium iodide staining-based flow cytometric analysis (reference value: 3.8 +/- 1%); type: cell-based; settings: hk-2, 24 h

Compound | inhibition [1] [%] | IC50 [2] [nM] | also measured
COCCN/C(=C1/N=CN(CCOC)C1=O)c1[nH]c2ccccc2c1I | 76.8 | 1080 | 
COCCN1C=N/C(=C(/NCCN(C)C)c2cc3ccccc3[nH]2)C1=O | 64.6 | > 1000 | 
COCCN/C(=C1/N=CN(CCOC)C1=O)c1cc2ccccc2[nH]1 | 73.7 | 460 | inhibition [3]: Active; Activity (HK-2 [4]): Active; Activity (HK-2 [5]): Non-Toxic
CC(C)N/C(=C1/N=CN(C(C)C)C1=O)c1cc2cccnc2[nH]1 | 37.2 |  | 
COCCN/C(=C1/N=C(C)N(CCOC)C1=O)c1cc2ccccc2[nH]1 | 93 | 20 | 
O=C1/C(=C(\NCc2ccccc2)c2cc3cccnc3[nH]2)N=CN1Cc1ccccc1 | 11.7 |  | 
O=C1/C(=C(\NCc2ccccc2)c2cc3ccccc3[nH]2)N=CN1Cc1ccccc1 | 28.2 |  | 
COCCN/C(=C1/N=CN(CCOC)C1=O)c1[nH]c2ccccc2c1Br | 62.9 | > 1000 | 
COCCN/C(=C1/N=CN(CCOC)C1=O)c1cc2cccnc2[nH]1 | 79.4 | 380 | 
COCCN/C(=C1/N=C(c2ccccc2)N(CCOC)C1=O)c1cc2ccccc2[nH]1 | 21.5 | > 1000 | 
O=C1/C(=C(\NC2CCCCC2)c2cc3cccnc3[nH]2)N=CN1C1CCCCC1 | 4.5 |  | 
CCCCN/C(=C1/N=CN(CCCC)C1=O)c1cc2ccccc2[nH]1 | 14 |  | 
CC(C)N/C(=C1/N=CN(C(C)C)C1=O)c1cc2ccccc2[nH]1 | 57.8 | > 1000 | 
CCCC[C@@H](C=O)NC(=O)[C@H](CC(C)C)NC(=O)OCc1ccccc1 [CALPEPTIN] |  |  | Activity (HK-2 [6]): 9.9%; Activity (HK-2 [7]): 5.9%
CCCCN/C(=C1/N=CN(CCOC)C1=O)c1cc2ccccc2[nH]1 | 75.4 | 350 | 
COCCN/C(=C1/N=CN(CCOC)C1=O)c1[nH]c2ccccc2c1Cl | 71.9 | > 1000 | 
COCCCN/C(=C1/N=CN(CCOC)C1=O)c1cc2ccccc2[nH]1 | 71.8 | 1020 | 
O=C1/C(=C(\NC2CCCCC2)c2cc3ccccc3[nH]2)N=CN1C1CCCCC1 | 9 |  | 
